1 compound from PMC10178848, “Modulating fast skeletal muscle contraction protects skeletal muscle in animal models of Duchenne muscular dystrophy” (The Journal of Clinical Investigation, 2023) can be followed below.

The subject of this experiment is psoas S1 (fast skeletal muscle myosin). Description: Stopped-flow analysis of Pi release from myosin. The format is biochemical, rabbit. The arrangement: dose or concentration left out as unconfirmed. The note with it: preincubation with myosin 30 minutes prior to actin. As for the experimental part:
The rate of Pi release from myosin with actin utilized a fluorescent phosphate binding protein, as described previously ([63]). Experiments were performed in 10 mM MOPS, pH 7.0; 5 mM KCL; 1 mM EGTA; 1 mM DTT; 0.5 mM MgCl2. ATP and ADP were removed by incubation with apyrase ([64]). Prior to mixing with 1 mM ATP in a stopped flow device, compound was incubated with 6 μM psoas S1 at 25°C for 30 minutes.

With `Cc1ccc(S(=O)(=O)NCc2ccccc2)cc1` [BTS, N-benzyl-p-toluene sulfonamide, reference compound], the “rate of Pi release from myosin with actin” value is given as “decreased the rate of Pi release”.
